Reference: ChEMBL document CHEMBL5665443, “Enzyme Inhibitor Single Concentration assay results for EUbOPEN Chemogenomics Library” (2024)
*1 amine or outer side, *2 acyl side, *3 side chain or, on linkers, in order; H or OH if unused. Where a SMILES comes first, the peptide text is derived from it. Bridges are numbered along the chain shown (N, C = ends). X1 = O=C(CCC[*:2])[*:1]

Assays:
Settings in all cases: Compound Concentration 10.0 uM, Hit No
[1] = molecular target: Methyl-CpG-binding domain protein 4 (Homo sapiens) (UniProt O95243);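 further: MBD4 activity read as fluorescence at 594 nm from cleavage and release of a quenched duplex DNA oligonucleotide, with APE1 coupled to incise the strand and raise turnover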
Description: Inhibition of MBD4 by quantifying inhibition of MBD4-mediated cleavage and dissociation of quenched duplex DNA oligonucleotides, measured as fluorescence at 594 nm. To generate a functional strand incision and increase turn-over this assay is coupled to APE1.

[2] = molecular target: DNA-3-methyladenine glycosylase (Homo sapiens) (UniProt P29372);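 further: enzyme assay where MPG cuts a quenched duplex DNA oligonucleotide probe, paired with APE1 for strand incision and turnover, read as fluorescence at 594 nm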
Description: Inhibition of MPG by quantifying inhibition of MPG-mediated cleavage and dissociation of quenched duplex DNA oligonucleotides, measured as fluorescence at 594 nm. To generate a functional strand incision and increase turn-over this assay is coupled to APE1.

[3] = molecular target: T1, Adenine DNA glycosylase (Homo sapiens) (UniProt Q9UIF7);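 further: human MUTYH activity read as 594 nm fluorescence from cleavage and release of a quenched DNA duplex, coupled with APE1 for strand incision, lower signal meaning inhibition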
T1 sequence (whole entry): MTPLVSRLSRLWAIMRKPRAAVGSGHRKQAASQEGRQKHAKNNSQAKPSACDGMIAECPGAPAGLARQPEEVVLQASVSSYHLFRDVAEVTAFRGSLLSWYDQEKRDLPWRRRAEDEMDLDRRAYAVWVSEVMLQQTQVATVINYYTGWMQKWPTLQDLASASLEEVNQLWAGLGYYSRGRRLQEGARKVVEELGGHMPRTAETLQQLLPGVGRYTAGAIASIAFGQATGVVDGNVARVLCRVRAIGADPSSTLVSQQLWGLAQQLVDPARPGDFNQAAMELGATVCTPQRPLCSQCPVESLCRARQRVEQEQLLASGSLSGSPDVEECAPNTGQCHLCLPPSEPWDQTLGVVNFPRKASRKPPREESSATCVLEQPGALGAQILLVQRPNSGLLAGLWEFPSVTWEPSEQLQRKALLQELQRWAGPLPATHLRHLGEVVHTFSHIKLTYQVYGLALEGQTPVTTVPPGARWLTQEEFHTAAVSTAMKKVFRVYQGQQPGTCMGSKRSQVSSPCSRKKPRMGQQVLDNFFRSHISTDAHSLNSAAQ
Description: Inhibition of MUTYH by quantifying inhibition of MUTYH-mediated cleavage and dissociation of quenched duplex DNA oligonucleotides, measured as fluorescence at 594 nm. To generate a functional strand incision and increase turn-over this assay is coupled to APE1.

[4] = molecular target: Endonuclease 8-like 1 (Homo sapiens) (UniProt Q96FI4);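 further: fluorescence at 594 nm from quenched duplex DNA oligonucleotides released by NEIL1 cleavage and strand separation, reported as reduction of this enzyme activity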
Description: Inhibition of NEIL1 by quantifying inhibition of NEIL1-mediated cleavage and dissociation of quenched duplex DNA oligonucleotides, measured as fluorescence at 594 nm.

[5] = molecular target: T2, Endonuclease 8-like 2 (Homo sapiens) (UniProt Q969S2);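 further: fluorescence at 594 nm reports NEIL2 cutting and release of a quenched double-stranded DNA oligo substrate, reduced signal read as inhibition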
T2 sequence (whole entry): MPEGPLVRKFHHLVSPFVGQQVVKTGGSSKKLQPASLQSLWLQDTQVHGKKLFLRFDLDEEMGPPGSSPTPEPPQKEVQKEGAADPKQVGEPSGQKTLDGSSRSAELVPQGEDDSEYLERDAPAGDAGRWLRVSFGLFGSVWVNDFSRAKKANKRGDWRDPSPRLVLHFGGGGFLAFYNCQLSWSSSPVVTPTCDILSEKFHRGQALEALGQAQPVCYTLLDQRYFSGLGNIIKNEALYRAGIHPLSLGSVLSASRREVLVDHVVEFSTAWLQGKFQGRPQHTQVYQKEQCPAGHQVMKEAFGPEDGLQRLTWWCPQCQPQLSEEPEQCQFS
Description: Inhibition of NEIL2 by quantifying inhibition of NEIL2-mediated cleavage and dissociation of quenched duplex DNA oligonucleotides, measured as fluorescence at 594 nm.

[6] = molecular target: T3, Endonuclease III-like protein 1 (Homo sapiens) (UniProt P78549);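 further: enzyme assay tracking NTHL1 cutting and release of a quenched double-stranded DNA oligo substrate, read as fluorescence at 594 nm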
T3 sequence (whole entry): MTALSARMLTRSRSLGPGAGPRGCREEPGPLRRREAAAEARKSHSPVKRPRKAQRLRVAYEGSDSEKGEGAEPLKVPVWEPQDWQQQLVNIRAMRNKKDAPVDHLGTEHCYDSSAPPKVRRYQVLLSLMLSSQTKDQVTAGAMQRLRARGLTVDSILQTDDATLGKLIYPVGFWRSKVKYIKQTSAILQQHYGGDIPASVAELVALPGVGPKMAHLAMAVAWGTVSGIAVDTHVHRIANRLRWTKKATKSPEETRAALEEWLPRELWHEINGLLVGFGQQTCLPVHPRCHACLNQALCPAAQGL
Description: Inhibition of NTHL1 by quantifying inhibition of NTHL1-mediated cleavage and dissociation of quenched duplex DNA oligonucleotides, measured as fluorescence at 594 nm.

[7] = molecular target: G/T mismatch-specific thymine DNA glycosylase (Homo sapiens) (UniProt Q13569);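 further: human TDG cleavage of quenched duplex DNA oligonucleotides coupled to APE1, strand release read as fluorescence at 594 nm, inhibition of TDG activity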
Description: Inhibition of TDG by quantifying inhibition of TDG-mediated cleavage and dissociation of quenched duplex DNA oligonucleotides, measured as fluorescence at 594 nm. To generate a functional strand incision and increase turn-over this assay is coupled to APE1.

[8] = molecular target: Uracil-DNA glycosylase (Homo sapiens) (UniProt P13051);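 further: UNG excision on a quenched double-stranded DNA oligo probe, with APE1 added for strand incision and turnover, read as fluorescence at 594 nm as strands separate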
Description: Inhibition of UNG by quantifying inhibition of UNG-mediated cleavage and dissociation of quenched duplex DNA oligonucleotides, measured as fluorescence at 594 nm. To generate a functional strand incision and increase turn-over this assay is coupled to APE1.

[9] = molecular target: N-glycosylase/DNA lyase (Homo sapiens) (UniProt O15527);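 further: OGG1 cleavage of a quenched duplex DNA oligonucleotide, coupled to APE1 for strand incision, read as fluorescence at 594 nm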
Chain of N-glycosylase/DNA lyase (Homo sapiens) (O15527 whole entry): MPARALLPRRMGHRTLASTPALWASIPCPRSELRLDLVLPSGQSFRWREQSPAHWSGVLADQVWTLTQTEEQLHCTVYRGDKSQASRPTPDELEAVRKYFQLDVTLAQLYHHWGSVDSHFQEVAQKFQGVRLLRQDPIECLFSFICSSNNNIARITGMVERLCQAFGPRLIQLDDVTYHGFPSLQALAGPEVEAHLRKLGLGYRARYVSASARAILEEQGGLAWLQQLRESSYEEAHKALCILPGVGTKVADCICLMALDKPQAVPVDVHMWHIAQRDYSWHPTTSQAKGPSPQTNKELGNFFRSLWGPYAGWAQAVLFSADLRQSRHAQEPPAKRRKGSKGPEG
Description: Inhibition of OGG1 by quantifying inhibition of OGG1-mediated cleavage and dissociation of quenched duplex DNA oligonucleotides, measured as fluorescence at 594 nm. To generate a functional strand incision and increase turn-over this assay is coupled to APE1.

Chain of Endonuclease 8-like 1 (Homo sapiens) (Q96FI4 whole entry): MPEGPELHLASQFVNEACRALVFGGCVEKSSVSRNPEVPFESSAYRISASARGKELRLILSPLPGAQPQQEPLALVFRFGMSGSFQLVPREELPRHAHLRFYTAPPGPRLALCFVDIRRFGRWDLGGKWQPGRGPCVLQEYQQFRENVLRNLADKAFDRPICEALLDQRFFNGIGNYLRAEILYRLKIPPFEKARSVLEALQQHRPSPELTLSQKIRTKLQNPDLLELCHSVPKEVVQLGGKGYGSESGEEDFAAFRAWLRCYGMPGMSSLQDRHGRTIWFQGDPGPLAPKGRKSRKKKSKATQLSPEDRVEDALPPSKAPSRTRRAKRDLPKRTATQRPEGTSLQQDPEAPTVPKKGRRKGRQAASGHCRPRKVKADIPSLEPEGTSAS
Chain of G/T mismatch-specific thymine DNA glycosylase (Homo sapiens) (Q13569 whole entry): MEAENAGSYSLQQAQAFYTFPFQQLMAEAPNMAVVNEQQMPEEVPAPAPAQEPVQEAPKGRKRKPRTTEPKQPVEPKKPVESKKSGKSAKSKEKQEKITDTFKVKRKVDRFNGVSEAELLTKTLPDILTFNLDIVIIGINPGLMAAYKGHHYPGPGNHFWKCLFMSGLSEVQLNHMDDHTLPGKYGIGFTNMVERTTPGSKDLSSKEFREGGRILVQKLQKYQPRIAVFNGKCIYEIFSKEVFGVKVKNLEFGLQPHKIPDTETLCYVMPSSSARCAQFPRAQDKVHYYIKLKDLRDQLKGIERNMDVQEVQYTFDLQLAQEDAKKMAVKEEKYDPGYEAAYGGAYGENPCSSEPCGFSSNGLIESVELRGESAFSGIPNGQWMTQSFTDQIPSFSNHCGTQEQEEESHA
Chain of Methyl-CpG-binding domain protein 4 (Homo sapiens) (O95243 whole entry, the tested form may be a part): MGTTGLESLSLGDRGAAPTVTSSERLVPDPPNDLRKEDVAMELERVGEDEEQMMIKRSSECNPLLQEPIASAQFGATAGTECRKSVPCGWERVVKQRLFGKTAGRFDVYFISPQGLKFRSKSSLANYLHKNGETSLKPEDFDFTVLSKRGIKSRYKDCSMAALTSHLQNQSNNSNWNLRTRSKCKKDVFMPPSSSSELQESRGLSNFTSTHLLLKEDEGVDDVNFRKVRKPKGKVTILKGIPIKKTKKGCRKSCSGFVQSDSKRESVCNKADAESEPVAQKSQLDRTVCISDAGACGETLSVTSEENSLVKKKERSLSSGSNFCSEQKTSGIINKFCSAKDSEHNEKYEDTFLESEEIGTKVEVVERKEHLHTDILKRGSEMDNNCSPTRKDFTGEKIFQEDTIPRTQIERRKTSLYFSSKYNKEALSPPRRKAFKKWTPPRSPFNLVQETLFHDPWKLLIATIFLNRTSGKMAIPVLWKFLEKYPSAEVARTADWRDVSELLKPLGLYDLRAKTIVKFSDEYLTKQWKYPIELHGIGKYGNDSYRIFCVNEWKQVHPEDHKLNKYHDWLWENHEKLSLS
Chain of Uracil-DNA glycosylase (Homo sapiens) (P13051 whole entry): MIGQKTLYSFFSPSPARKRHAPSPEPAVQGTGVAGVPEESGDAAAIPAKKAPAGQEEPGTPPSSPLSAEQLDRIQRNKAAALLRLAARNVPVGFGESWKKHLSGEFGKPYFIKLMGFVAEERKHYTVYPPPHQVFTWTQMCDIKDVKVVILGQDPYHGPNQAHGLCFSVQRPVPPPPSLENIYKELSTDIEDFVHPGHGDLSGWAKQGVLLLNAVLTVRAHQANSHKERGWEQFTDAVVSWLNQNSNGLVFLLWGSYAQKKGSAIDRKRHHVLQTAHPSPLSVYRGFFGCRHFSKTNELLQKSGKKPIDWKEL
Chain of DNA-3-methyladenine glycosylase (Homo sapiens) (P29372 whole entry): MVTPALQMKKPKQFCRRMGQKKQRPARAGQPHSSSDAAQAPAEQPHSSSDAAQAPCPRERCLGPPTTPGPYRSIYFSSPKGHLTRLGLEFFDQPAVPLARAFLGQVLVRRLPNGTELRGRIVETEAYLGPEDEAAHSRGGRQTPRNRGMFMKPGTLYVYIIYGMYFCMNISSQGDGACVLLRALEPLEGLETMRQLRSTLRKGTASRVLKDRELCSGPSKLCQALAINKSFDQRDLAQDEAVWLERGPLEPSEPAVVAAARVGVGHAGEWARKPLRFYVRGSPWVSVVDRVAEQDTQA

Row | Structure (SMILES) | inhibition [1] [%] | inhibition [2] [%] | inhibition [3] [%] | inhibition [4] [%] | inhibition [5] [%] | inhibition [6] [%] | inhibition [7] [%] | inhibition [8] [%] | inhibition [9] [%]
1 | C[C@H](NC(=O)[C@H](Cc1ccccc1)NC(=O)[C@H](CCC(N)=O)NC(=O)CNC(=O)[C@@H]1CCCN1C(=O)[C@H](Cc1ccccc1)NC(=O)[C@@H](N)Cc1ccc(O)cc1)C(=O)N[C@@H](Cc1ccccc1)C(=O)N[C@@H](CO)C(=O)O | 12.6 | 6.08 | 2.52 | 13.2 | 2.96 | 21.2 | 9.05 | -4.67 | 
2 | CCCCCCCC/C=C\CCCCCCCC(=O)NCc1ccc(O)c(OC)c1 | 18.2 | -5.12 | 5.55 |  |  | -7.69 | 13.7 | -4.89 | -7.56
3 | CO[C@H]1CC[C@@H](C(=O)c2ccc3nc4c(cc3c2)CCCO4)CC1 | -6.79 | -2.23 | -9.06 | 1.35 | 8.38 | -6.5 | 4.03 |  | -3.26
4 | CNC(=O)[C@H]1O[C@@H](n2cnc3c(NCc4cccc(I)c4)ncnc32)[C@H](O)[C@@H]1O | 10.4 | 2.83 | 14.2 | -7.1 | -8.76 | -2.73 | 6.72 | -5.89 | 
5 | CC[C@H](C)[C@@H]1NC(=O)[C@H](Cc2ccc(OC)cc2)NC(=O)CCCSC[C@@H](C(=O)N2CCC[C@H]2C(=O)N[C@@H](CC(C)C)C(=O)NCC(N)=O)NC(=O)[C@H](CC(N)=O)NC(=O)[C@H](CCC(N)=O)NC1=O (Y(Me)IQNCPLG-NH2; linker N-5 via X1) | -5.48 | -9.15 | -1 | -0.0556 | -7.22 | 33.4 | -1.9 |  | -9.58
6 | c1ccc(C2CN3CCC2CC3)cc1 (stereo not given) | 22 | 3.54 | 22.9 | 0.158 | -3.92 | 26.2 | 22.8 | -9.01 | 
7 | FC(F)(F)c1cccc(-c2noc(-c3cc(-c4ccccc4)c(C(F)(F)F)s3)n2)c1 | 6.66 | -0.823 | 1.81 |  | -4.73 | 4.86 | 9.3 |  | -2.17
8 | N=C(N)NCCC[C@H](NC(=O)COCC(c1ccccc1)c1ccccc1)C(=O)O | -5.83 | 6.97 | 3.99 | 7.21 | -7.47 | 9.99 | -4.14 |  | -5.82
9 | Nc1nc(CC(=O)Nc2ccc(CCNC[C@H](O)c3ccccc3)cc2)cs1 | 6.31 | 5.02 | 7.21 | 3.71 | -2.64 | 22 | 2.71 | -1.78 | 
10 | CN1CC[C@@]23CCCC[C@@H]2[C@@H]1Cc1ccc(O)cc13 | 3.69 | -0.416 | -5.81 | -2.06 | -9.52 | 14.6 | -3.74 | -7.94 | 
11 | CCN(c1ccccc1)c1cc(NC)[n+](C)c(C)n1 | 25.3 | 1.67 | 7.99 | -3.4 | 4.75 | 30.3 | 7.48 | -8.21 | 
12 | CCCCN(CCCC)C(=O)CN1C[C@@H](c2ccc3c(c2)OCO3)[C@H](C(=O)O)[C@H]1c1ccc(OC)cc1 | 29.1 | 19.8 | 19.5 | -5.1 | -2.98 | 4.86 | 32.4 |  | 2.58
13 | CC1(C)SSC(C)(C)[C@@H](NC(=O)[C@@H](N)Cc2ccc(O)cc2)C(=O)NCC(=O)N[C@@H](Cc2ccccc2)C(=O)N[C@H]1C(=O)O | -7.23 | 7.58 | 1.3 | 8.1 | 9.5 | 17.3 | 10.6 |  | -3.29
14 | C[N+]1(C)[C@@H]2C[C@@H](OC(=O)C(O)(c3cccs3)c3cccs3)C[C@H]1[C@@H]1O[C@@H]12 | -8.5 | -7.84 | 9.11 | 8.84 | 2.01 | 7.05 | -0.0311 |  | -4.25
15 | c1cnc2cc3c(cc2n1)[C@@H]1CNC[C@H]3C1 | 15.3 | 9.33 | 34.7 | 4.16 |  | 12.9 | 13.7 | -9.92 | 
16 | C[C@H]1CN(C[C@H](Cc2ccccc2)C(=O)NCC(=O)O)CC[C@@]1(C)c1cccc(O)c1 | 21.1 | 22.9 | 40.2 | -4.44 | -9.01 | 34.4 | 37.5 | -7.63 | 
17 | CC(C)C[C@@H](NC(=O)[C@H](Cc1ccccc1)NC(=O)CNC(=O)[C@@H](C)NC(=O)[C@@H](N)Cc1ccc(O)cc1)C(=O)O | 20 | -5.23 | 18.5 |  |  | 10.5 | 20.9 | -7.3 | -5.5
18 | CCCNC(=O)c1nnc2c(-c3c(F)cccc3OC)cccc2c1N | 26.8 | 12.4 | 24.9 | 10.5 | -2.64 | 27.8 | 24.5 | -1.98 | 
19 | Cc1ccccc1C(=O)Nc1ccc(C(=O)N2CCCC(N(C)C)c3ccccc32)cc1 (stereo not given) | 19.4 | 11.6 | 10.3 | 11.6 |  | 21.2 | 18.4 | -2.08 | 
20 | Fc1cccc(/C=N/N=C/c2cccc(F)c2)c1 | 4.13 | -2.88 | 1.53 | -5.18 | -1.37 | 15.4 | 5.75 | -6.06 | 
21 | CCOC(=O)c1ncn2c1[C@@H]1CCCN1C(=O)c1cc(OC)ccc1-2 | 14.4 | -5.68 | -3.58 | -2.51 | -4.43 | -3.56 | -5.12 | -7.79 | 
22 | CCCCC1=NC2(CCCC2)C(=O)N1Cc1ccc(-c2ccccc2-c2nnn[nH]2)cc1 | 9.56 | 12.4 | 12.9 | 0.241 | 5.76 | -1.01 | 11.8 |  | -0.701
23 | C[C@@H](NC(=O)Cc1ccc(C2CC2)cc1)c1ccc(OCC(F)(F)F)cn1 | 4.9 | 10.8 | -6.51 | 0.602 | -6.21 | 11.3 | 4.49 | -2.14 | 
24 | CN(Cc1cccc(F)c1CNc1cc(F)c(S(=O)(=O)Nc2cscn2)c(F)c1)C(C)(C)C | 28.6 | 20.1 | 40.5 | 2.08 | -2.39 | 18.7 | 4.92 | -9.64 | 
25 | CN1CCN(Cc2ccc(-c3cccc(C(=O)Nc4ccccc4CC(=O)O)c3)cc2)CC1 | 18.1 | 12.7 | 17.7 | 17.2 | -2.64 | -1.91 | 14.1 | -2.65 | 
